Assay results as given in ChEMBL document CHEMBL1212771, “BEL-2, an extended-spectrum beta-lactamase with increased activity toward expanded-spectrum cephalosporins in Pseudomonas aeruginosa” (Antimicrob Agents Chemother, 2010).
Values after ≈ are worked out from the molar mass of the structure shown.

What was measured:
Assay type in all cases: functional
Pseudomonas aeruginosa [1] = assay: Antimicrobial activity against Pseudomonas aeruginosa 531 expressing beta-lactamase BEL-2 by solid agar dilution method
Escherichia coli [2] = assay: Antimicrobial activity against Escherichia coli TOP10 by solid agar dilution method
Pseudomonas aeruginosa [3] = assay: Antimicrobial activity against Pseudomonas aeruginosa 51170 expressing beta-lactamase BEL-1 by solid agar dilution method
Escherichia coli [4] = assay: Antimicrobial activity against Escherichia coli TOP10 expressing recombinant beta-lactamase BEL-2 by solid agar dilution method
Escherichia coli [5] = assay: Antimicrobial activity against Escherichia coli TOP10 expressing recombinant beta-lactamase BEL-1 by solid agar dilution method

CO/N=C(\C(=O)N[C@@H]1C(=O)N2C(C(=O)O)=C(COC(C)=O)CS[C@H]12)c1csc(N)n1 [CEFOTAXIME] gave an MIC (Pseudomonas aeruginosa [1]) of 256 µg/mL (≈ 562 µM), an MIC (Escherichia coli [2]) of 0.12 µg/mL (≈ 0.263 µM) and an MIC (Pseudomonas aeruginosa [3]) of 32 µg/mL (≈ 70.3 µM). It also gave an MIC (Escherichia coli [4]) of 32 µg/mL and an MIC (Escherichia coli [5]) of 4 µg/mL.
With C[C@H]1[C@H](NC(=O)/C(=N\OC(C)(C)C(=O)O)c2csc(N)n2)C(=O)N1S(=O)(=O)O [AZTREONAM] the MIC (Pseudomonas aeruginosa [1]) was 64 µg/mL (≈ 147 µM), the MIC (Pseudomonas aeruginosa [3]) was 16 µg/mL (≈ 36.7 µM) and the MIC (Escherichia coli [4]) was 16 µg/mL. It also gave an MIC (Escherichia coli [5]) of 16 µg/mL.
For CC1(C)S[C@@H]2[C@H](NC(=O)[C@H](C(=O)O)c3ccsc3)C(=O)N2[C@H]1C(=O)O [TICARCILLIN], the MIC (Pseudomonas aeruginosa [1]) was > 512 µg/mL, the MIC (Escherichia coli [2]) was 4 µg/mL (≈ 10.4 µM) and the MIC (Pseudomonas aeruginosa [3]) was > 512 µg/mL. The MIC (Escherichia coli [4]) was > 512 µg/mL and the MIC (Escherichia coli [5]) was > 512 µg/mL.
For CO/N=C(\C(=O)N[C@@H]1C(=O)N2C(C(=O)[O-])=C(C[N+]3(C)CCCC3)CS[C@H]12)c1csc(N)n1, the MIC (Pseudomonas aeruginosa [1]) was 16 µg/mL (≈ 33.3 µM), the MIC (Pseudomonas aeruginosa [3]) was 4 µg/mL (≈ 8.32 µM) and the MIC (Escherichia coli [4]) was 1 µg/mL. For the same molecule, the MIC (Escherichia coli [5]) was 0.25 µg/mL.
Work on CO[C@@]1(NC(=O)Cc2cccs2)C(=O)N2C(C(=O)O)=C(COC(N)=O)CS[C@@H]21 [CEFOXITIN] yielded an MIC (Pseudomonas aeruginosa [1]) of 512 µg/mL (≈ 1200 µM), an MIC (Escherichia coli [2]) of 2 µg/mL (≈ 4.68 µM) and an MIC (Pseudomonas aeruginosa [3]) of 512 µg/mL (≈ 1200 µM). It also gave an MIC (Escherichia coli [4]) of 2 µg/mL and an MIC (Escherichia coli [5]) of 2 µg/mL.
In the case of CC1(C)S[C@@H]2[C@H](NC(=O)[C@H](N)c3ccc(O)cc3)C(=O)N2[C@H]1C(=O)O [AMOXICILLIN], the MIC (Pseudomonas aeruginosa [1]) is reported as > 512 µg/mL, the MIC (Escherichia coli [2]) is reported as 4 µg/mL (≈ 10.9 µM) and the MIC (Pseudomonas aeruginosa [3]) is reported as > 512 µg/mL. For the same molecule, the MIC (Escherichia coli [4]) was > 512 µg/mL and the MIC (Escherichia coli [5]) was > 512 µg/mL.
CC(=O)OCC1=C(C(=O)O)N2C(=O)[C@@H](NC(=O)Cc3cccs3)[C@H]2SC1 [CEPHALOTHIN] was tested, and the MIC (Pseudomonas aeruginosa [1]) was > 512 µg/mL, the MIC (Escherichia coli [2]) was 2 µg/mL (≈ 5.04 µM) and the MIC (Pseudomonas aeruginosa [3]) was > 512 µg/mL. It also gave an MIC (Escherichia coli [4]) of 256 µg/mL and an MIC (Escherichia coli [5]) of 256 µg/mL.
